{
  "source": "patent US12203941B2",
  "about": "“Methods and compositions for diagnosis and prognosis of renal injury and renal failure” (ASTUTE MEDICAL, INC., priority 2013, dated 2025)",
  "key": {"[1]": {"test_system": "critically ill patients with either stage I or II Acute Kidney Injury Network (AKIN) criteria", "conditions": "for Urine volume, Hour 1: Hour 1 after FST; for Urine volume, Hour 1 / Urine volume, Hour 2 / Urine volume, Hour 3 / Urine volume, Hour 4 / Urine volume, Hour 5 / Urine volume, Hour 6: mean (s.e.); for Urine volume, Hour 2: Hour 2 after FST; for Urine volume, Hour 3: Hour 3 after FST; for Urine volume, Hour 4: Hour 4 after FST; for Urine volume, Hour 5: Hour 5 after FST; for Urine volume, Hour 6: Hour 6 after FST; for Tolerability / adverse events attributable to the FST: critically ill patients with AKI, well-resuscitated, iv furosemide 1.0 or 1.5 mg/kg, urine output replaced with isotonic fluids when appropriate", "description": "Replacement fluid was not protocolized in this group of subjects. Demographic, clinical data, urine sediment scores, and outcome data were abstracted from the case report forms.\nPrior to FST urine was collected. […] In order to minimize the risk of hypovolemia, urine output was replaced ml for ml each hour with either Ringers lactate or normal saline for six hours after the FST. The treating team could elect not to replace the volume if net volume loss was considered clinically desirable.\nUrine output was measured hourly for six hours and in total for 24 hours. […] Patients were followed for 14 days or hospital discharge, whichever occurred first. Fractional excretion of sodium was calculated as described in Bagshaw and colleagues. MDRD equation was used to calculate the eGFR as described in Levey and colleagues. Cardiovascular SOFA score and APACHE II score were calculated as previously described."}, "[2]": {"test_system": "patients without AKI", "conditions": "previous investigators; cited from earlier work"}},
  "note": "Like-named read-outs stand apart in the source and are kept apart here.",
  "data": [
    {"compound": "NS(=O)(=O)c1cc(C(=O)O)c(NCc2ccco2)cc1Cl", "note": "[Furosemide]", "values": [
      {"measurement": "Urine volume, Hour 1", "setting": "[1]; Combined n = 77, furosemide 1.0 or 1.5 mg/kg iv", "value": "251 (35.2) ml"},
      {"measurement": "Urine volume, Hour 1", "setting": "[1]; Furosemide Naive n = 29", "value": "331 (68.5) ml"},
      {"measurement": "Urine volume, Hour 1", "setting": "[1]; Non-naive N = 48", "value": "258 (37.2) ml"},
      {"measurement": "Urine volume, Hour 2", "setting": "[1]; Combined n = 77", "value": "296 (35.8) ml"},
      {"measurement": "Urine volume, Hour 2", "setting": "[1]; Furosemide Naive n = 29", "value": "348 (66.6) ml"},
      {"measurement": "Urine volume, Hour 2", "setting": "[1]; Non-naive N = 48", "value": "264 (40.9) ml"},
      {"measurement": "Urine volume, Hour 3", "setting": "[1]; Combined n = 77", "value": "246 (26.6) ml"},
      {"measurement": "Urine volume, Hour 3", "setting": "[1]; Furosemide Naive n = 29", "value": "285 (52.1) ml"},
      {"measurement": "Urine volume, Hour 3", "setting": "[1]; Non-naive N = 48", "value": "223 (28.6) ml"},
      {"measurement": "Urine volume, Hour 4", "setting": "[1]; Combined n = 77", "value": "207 (24.1) ml"},
      {"measurement": "Urine volume, Hour 4", "setting": "[1]; Furosemide Naive n = 29", "value": "240 (48.6) ml"},
      {"measurement": "Urine volume, Hour 4", "setting": "[1]; Non-naive N = 48", "value": "188 (25.4) ml"},
      {"measurement": "Urine volume, Hour 5", "setting": "[1]; Combined n = 77", "value": "175 (18.6) ml"},
      {"measurement": "Urine volume, Hour 5", "setting": "[1]; Furosemide Naive n = 29", "value": "204 (35.9) ml"},
      {"measurement": "Urine volume, Hour 5", "setting": "[1]; Non-naive N = 48", "value": "157 (22.5) ml"},
      {"measurement": "Urine volume, Hour 6", "setting": "[1]; Combined n = 77", "value": "155 (17.4) ml"},
      {"measurement": "Urine volume, Hour 6", "setting": "[1]; Furosemide Naive n = 29", "value": "167 (33.6) ml"},
      {"measurement": "Urine volume, Hour 6", "setting": "[1]; Non-naive N = 48", "value": "147 (19.6) ml"},
      {"measurement": "Tolerability / adverse events attributable to the FST", "setting": "[1]", "value": "these complications were not observed in this study"},
      {"measurement": "Tolerability / adverse events attributable to the FST", "setting": "[1]; listed as furosemide", "value": "well tolerated with no episodes of hypotension or any other adverse event deemed attributable to the test"},
      {"measurement": "Time of maximum urine flow rate (UFR) after FST", "setting": "[1]; hourly urine output for six hours after iv furosemide", "value": "within the first two to three hours"},
      {"measurement": "Mean UO in response to the challenge", "setting": "[1]; in 6 hours after FST", "value": "over 1.3 liters"},
      {"measurement": "Time of maximum diuretic effect", "setting": "[2]", "value": "within the first three hours"}
    ]}
  ]
}
